Where a SMILES comes first, the peptide text is derived from it.
What was measured:
Format in all cases: cell-based
[1] = system: E. coli ATCC35218; assay: MIC, broth dilution, standard strain; conditions: broth dilution (CLSI), MHB, 37 °C, 16–20 h
Procedure: (§1) The standard strains, including S. aureus ATCC29213 and ATCC25923, E. faecalis ATCC29212, E. coli ATCC25922 and ATCC35218, A. baumannii ATCC19606, K. pneumoniae ATCC700603, and P. aeruginosa ATCC27853, were purchased from the China Center of Type Culture Collection (CCTCC). The clinical strains of the ESKAPE pathogens were isolated from the affiliated hospitals of Hubei University of Medicine. All of them were stored at −80 °C before use. The drug sensitivities of the clinical strains were determined by the Kirby–Bauer test.
(§2) The MICs were determined using the broth dilution method according to the guidelines of the Clinical and Laboratory Standards Institute (CLSI), as described in the previous studies. Briefly, the bacterial cells were incubated in Mueller–Hinton broth (MHB, Oxoid, Basingstoke, UK) at 37 °C and 150 rpm to the mid-growth phase and diluted to achieve a final concentration of 5 × 10^5 colony-forming units per milliliter (CFU/mL). Then, the cells were mixed with each peptide in different concentrations (1, 2, 4, 8, 16, 32, and 64 μg/mL). […] All experiments were repeated at least three times.

[2] = system: E. faecium ATCC29212; assay: MIC, broth dilution, standard strain; conditions: broth dilution (CLSI), MHB, 37 °C, 16–20 h
Procedure: as §1, §2

[3] = system: S. aureus ATCC29213; assay: MIC, broth dilution, standard strain; conditions: broth dilution (CLSI), MHB, 37 °C, 16–20 h
Procedure: as §1, §2

[4] = system: P. aeruginosa ATCC27853; assay: MIC, broth dilution, standard strain; conditions: broth dilution (CLSI), MHB, 37 °C, 16–20 h
Procedure: as §1, §2

[5] = system: E. coli ATCC25922; assay: MIC, broth dilution, standard strain; conditions: broth dilution (CLSI), MHB, 37 °C, 16–20 h
Procedure: as §1, §2

[6] = system: S. aureus ATCC25923; assay: MIC, broth dilution, standard strain; conditions: broth dilution (CLSI), MHB, 37 °C, 16–20 h
Procedure: as §1, §2

[7] = system: K. pneumoniae ATCC700603; assay: MIC, broth dilution, standard strain; conditions: broth dilution (CLSI), MHB, 37 °C, 16–20 h
Procedure: as §1, §2

[8] = system: A. baumannii ATCC19606; assay: MIC, broth dilution, standard strain; conditions: broth dilution (CLSI), MHB, 37 °C, 16–20 h
Procedure: as §1, §2

[9] = system: standard ESKAPE strains; conditions: broth dilution (CLSI), MHB
Procedure: The ESKAPE pathogens represent the main threat to public health concerning antimicrobial resistance. Therefore, we first evaluated the antimicrobial activities of Ctriporin and its analogs against the standard ESKAPE strains. The minimum inhibitory concentration (MIC) was chosen as the index for the evaluation of each peptide’s activity. […] Note that the MICs of CM4 and CM7 are 4–32 and 8–32 μg/mL, respectively, indicating the existence of significant bacterial species deviations for the antimicrobial activity of these peptides. In addition, the replacement of specific residues, especially Pro^7, may harm the antimicrobial activities of the peptide.
as §1, §2

[10] = 5 × 10^5 CFU/mL, OD630, repeated at least three times

CC[C@H](C)[C@H](NC(=O)[C@H](C)NC(=O)CNC(=O)[C@@H]1CCCN1C(=O)[C@@H](NC(=O)[C@H](CC(C)C)NC(=O)CNC(=O)[C@H](Cc1c[nH]c2ccccc12)NC(=O)[C@H](CC(C)C)NC(=O)[C@@H](N)Cc1ccccc1)[C@@H](C)CC)C(=O)N[C@@H](CO)C(=O)N[C@@H](C)C(=O)N[C@H](C(=O)N[C@H](C(=O)N[C@@H](CO)C(=O)N[C@@H](CC(C)C)C(=O)N[C@H](C(=O)N[C@@H](CCCCN)C(=O)N[C@@H](CCCCN)C(N)=O)[C@@H](C)CC)[C@@H](C)O)C(C)C [Ctriporin] (H-FLWGLIPGAISAVTSLIKK-NH2; N-terminus assumed)
MICs [1, 10]: > 64 µg/mL | MICs ([1]; value in parentheses): > 31.8 µM | MICs [2, 10]: 64 µg/mL | MICs ([2]; value in parentheses): 31.8 µM | MICs [3, 10]: 16 µg/mL | MICs ([3]; value in parentheses): 8.0 µM | MICs [4, 10]: > 64 µg/mL | MICs ([4]; value in parentheses): > 31.8 µM | MICs [5, 10]: 64 µg/mL | MICs ([5]; value in parentheses): 31.8 µM | MICs [6, 10]: 32 µg/mL | MICs ([6]; value in parentheses): 15.9 µM | MICs [7, 10]: > 64 µg/mL | MICs ([7]; value in parentheses): > 31.8 µM | MICs [8, 10]: 16 µg/mL | MICs ([8]; value in parentheses): 8.0 µM | MICs against S. aureus and A. baumannii ([9]; standard strains of S. aureus and A. baumannii): 16 to 32 µg/mL | MICs for other tested bacterial species ([9]; standard strains other than S. aureus and A. baumannii): ≥ 64 µg/mL
